Experimental data published in publication PMC6269938, “Natural Aristolactams and Aporphine Alkaloids as Inhibitors of CDK1/Cyclin B and DYRK1A” (Molecules, 2013).
“Also recorded” adds a separate entry of the source. Like-named read-outs stand apart in the source and are kept apart here.

Columns and labels:
DYRK1A = DYRK1A (Rattus norvegicus, UniProt Q63470); test: DYRK1A kinase inhibition assay; assay type: biochemical; details: for DYRK1A inhibition at 30 µM, in words: concentration of 30 µM; for IC50 / DYRK1A (IC50 in μM): mean of triplicates, variation max 20%, ATP 15 µM, 30 °C
Procedure: (§1) Values were background subtracted, and activities were calculated as pmoles of phosphate incorporated during a 10 min incubation. […] Controls were performed with appropriate dilutions of DMSO.
DYRK1A (rat, recombinant, expressed in E. coli as a GST fusion protein) was purified by affinity chromatography on glutathione-agarose and assayed as described.

CDK1/Cyclin B = CDK1/Cyclin B kinase inhibition assay; assay type: biochemical, starfish (Marthasterias glacialis)
Procedure: as §1
CDK1/Cyclin B was extracted in homogenisation buffer from M phase starfish (Marthasterias glacialis) oocytes and purified by affinity chromatography on p9^CKShs1-Sepharose beads, from which it was eluted with free p9^CKShs1 as previously described. […] After a 10 min incubation at 30 °C, 25 µL aliquots of supernatant were spotted onto P81 phosphocellulose paper and treated as described above.

CDK2 = system: CDK2; design: method as in PMID 20097074, PMID 20097066; details: previous studies; cited from earlier work
[1] = system: polo-box domain of Polo-like kinase 1; design: method as in PMID 19801998; details: cited from earlier work
cancer cell = system: cancer cell; design: method as in PMID 19801998; details: cited from earlier work
Aurora 2 kinase = target: Aurora 2 kinase; design: method as in PMID 20097074, PMID 20097066; details: previous studies; cited from earlier work
CDK4 = system: CDK4; design: method as in PMID 20097074, PMID 20097066; details: previous studies; cited from earlier work
human lung cancer cells = system: human lung cancer cells; design: method as in PMID 15473647; details: concentration of 20 μM; cited from earlier work
human colon cancer cells = system: human colon cancer cells; design: method as in doi:10.1016/j.procbio.2012.05.018; details: cited from earlier work
[2] = mean of triplicates, variation max 20%, ATP 15 µM, histone H1, 30 °C

| SMILES | DYRK1A inhibition at 30 µM, in words (DYRK1A) | IC50 (DYRK1A) | CDK1/Cyclin B inhibition at 30 µM, in words (CDK1/Cyclin B; concentration of 30 µM) | IC50 (CDK1/Cyclin B; [2]) | also measured |
| --- | --- | --- | --- | --- | --- |
| COc1cc2c3c(c1O)-c1c(ccc(OC)c1OC)CC3N(C)CC2 (single isomer, unassigned; (+)) [Compound 6, (+)-corydine] | inactive | > 30 µM | inactive | > 30 µM | – |
| COc1ccc2c(c1O)-c1c3c(cc4c1C(C2)N(C)CC4)OCO3 (single isomer, unassigned; (+)) [Compound 9, (+)-bulbocapnine] | inactive | > 30 µM | inactive | > 30 µM | – |
| COc1ccc2c(c1O)-c1c(OC)c(O)cc3c1C(C2)N(C)CC3 (single isomer, unassigned; (+)) [Compound 10, (+)-N-methyllindcarpine] | inactive | > 30 µM | inactive | > 30 µM | – |
| COc1cc2c(cc1O)CC1NCCc3cc4c(c-2c31)OCO4 (single isomer, unassigned; (+)) [Compound 11, (+)-actinodaphnine] | inactive | > 30 µM | inactive | > 30 µM | – |
| COc1c2c(cc3c1-c1c4c(cc5c1C(C3)NCC5)OCO4)OCO2 (single isomer, unassigned; (+)) [Compound 12, (+)-11-methoxynorneolistine] | – | – | – | – | CDK1/Cyclin B inhibition at 30 µM, in words (CDK1/Cyclin B): did not inhibit; also recorded: unable to inhibit; IC50 (CDK1/Cyclin B): > 30 µM |
| COc1cc2c3c(c1OC)-c1ccccc1CC3NCC2 (single isomer, unassigned; (+)) [Compound 15, (+)-N-nornuciferine] | – | 4.2 µM | unable to inhibit | > 30 µM | CDK1/Cyclin B inhibition at 30 µM, in words (CDK1/Cyclin B; concentration of 30 µM, listed as N-nornuciferine (15)): did not inhibit |
| COc1cc2c(cc1O)CC1c3c(cc(O)c(OC)c3-2)CCN1C (single isomer, unassigned; (+)) [Compound 16, (+)-boldine] | inactive | > 30 µM | inactive | > 30 µM | – |
| COc1cc([C@H]2OC[C@@H]3C(c4cc(OC)c(O)c(OC)c4)OC[C@H]23)ccc1O (single isomer, unassigned; (-)) [Compound 5, (−)-medioresinol] | – | 0.1 µM | – | 1.3 µM | DYRK1A (IC50 in μM) (DYRK1A): submicromolar |
| CN1CCc2cc3c(c4c2C1Cc1ccccc1-4)OCO3 (single isomer, unassigned; (-)) [Compound 7, (−)-roemerine] | inactive | 15 µM | unable to inhibit; also recorded: inactive | > 30 µM | – |
| COc1c2c3c(c(OC)c1OC)-c1ccccc1CC3NCC2 (single isomer, unassigned; (-)) [Compound 14, (−)-O-methylisopiline] | inactive | > 30 µM | inactive | > 30 µM | – |
| COc1c(O)cc2c3c(cc4ccccc4c13)NC2=O [Compound 1, aristolactam AII] | – | – | inactive | > 30 µM | – |
| COc1cc2c3c(cc4c(O)cccc4c3c1OC)NC2=O [Compound 3, velutinam] | – | 0.6 µM | – | 1.5 µM | DYRK1A (IC50 in μM) (DYRK1A): submicromolar |
| COc1c(O)cc2c3c(cc4ccc(O)cc4c13)NC2=O [Compound 4, aristolactam AIIIA] | – | 0.08 µM | – | 0.2 µM | DYRK1A (IC50 in μM) (DYRK1A): submicromolar; IC50 (CDK2): 0.14 µM; ligand targeting the polo-box domain of Polo-like kinase 1 [1]: new ligand; cancer cell proliferation, mitotic arrest at G2/M phase, apoptosis (cancer cell): could inhibit cancer cell proliferation; IC50 (Aurora 2 kinase): 2.14 µM; IC50 (CDK4): 1.42 µM |
| O=C1c2ccccc2-c2c3c(cc4ccnc1c24)OCO3 [Compound 8, liriodenine] | – | 3.1 µM | unable to inhibit | > 30 µM | apoptosis induction by inhibiting CDK1/Cyclin B kinase activity, G2/M cell cycle arrest (human lung cancer cells): induced apoptosis; growth of human colon cancer cells, G1/S cell cycle arrest (human colon cancer cells): inhibited the growth; CDK1/Cyclin B inhibition at 30 µM, in words (CDK1/Cyclin B; concentration of 30 µM, listed as Liriodenine (8)): did not inhibit |
| COc1cc2ccnc3c2c(c1OC)-c1ccccc1C3=O [Compound 13, lysicamine] | – | 2.4 µM | unable to inhibit | > 30 µM | CDK1/Cyclin B inhibition at 30 µM, in words (CDK1/Cyclin B; concentration of 30 µM, listed as lysicamine (13)): did not inhibit |
